From patent US20200030236A1, “BIOPATCH, BIOHEATER, BIOSENSOR AND BIOELECTRONIC PATCH DEVICE” (SEOUL NATIONAL UNIVERSITY R&DB FOUNDATION, priority 2016, published 2020)

Test system: brain tumors
Assay: Size change in brain tumor and survival rate in rats having brain tumors
Type: in vivo
Details: (a) drug injected by intravenous injection, rats (FIGS. 27, 28)
Description: FIGS. 27 to 29 show the result of comparing the size change in brain tumor and the survival rate according to four treatment methods applied to rats having brain tumors.

Question: With `COc1cccc2c1C(=O)c1c(O)c3c(c(O)c1C2=O)C[C@@](O)(C(=O)CO)C[C@@H]3O[C@H]1C[C@H](N)[C@H](O)[C@H](C)O1` [drug, doxorubicin] as the compound, how does the “size change in brain tumor” value read?
Answer: Its value is “rapidly increases with time”.
